Assay: Acid-dissociation constant relative to tris(trifluoromethylsulfonyl)methane
Format: physicochemical
Conditions: compared with tris(trifluoromethylsulfonyl)methane

Molecule | acid-dissociation constant of acids generated upon UV exposure
N#Cc1[b-]2c(C#N)c(C#N)c(C#N)c(C#N)c2c(C#N)c(C#N)c1C#N.c1ccc([S+](c2ccccc2)c2ccccc2)cc1 [17B, triphenylsulfonium 1,2,3,4,5,6,7,8-octacyanobenzo[a]borinine] | higher than that of tris(trifluoromethylsulfonyl)methane
diphenyliodonium bis(1,2,2-tricyanoethen-1-yl)-(1,1,2,4,5,5-hexacyanopent-1,4-dien-3-yl)borane [17C] | higher than that of tris(trifluoromethylsulfonyl)methane
N#Cc1[b-]2c(C#N)c(C#N)c(C#N)c(C#N)c2c(C#N)c(C#N)c1C#N.c1ccc([I+]c2ccccc2)cc1 [17D, diphenyliodonium 1,2,3,4,5,6,7,8-octacyanobenzo[a]borinine] | higher than that of tris(trifluoromethylsulfonyl)methane
N#Cc1[b-]2c(C#N)c(C#N)c(C#N)c(C#N)c2c(C#N)c(C#N)c1C#N.c1ccc([S+]2CCCC2)cc1 [17F, phenylthiolanium 1,2,3,4,5,6,7,8-octacyanobenzo[a]borinine] | higher than that of tris(trifluoromethylsulfonyl)methane
phenylthiolanium bis(1,2,2-tricyanoethen-1-yl)-(1,1,2,4,5,5-hexacyanopent-1,4-dien-3-yl)borane [17E] | higher than that of tris(trifluoromethylsulfonyl)methane
triphenylsulfonium bis(1,2,2-tricyanoethen-1-yl)-(1,1,2,4,5,5-hexacyanopent-1,4-dien-3-yl)borane [17A] | higher than that of tris(trifluoromethylsulfonyl)methane

Assay: not given
Conditions: smaller than that of tris(trifluoromethylsulfonyl)methane; cited from earlier work

Molecule | acid-dissociation constant
CC1(C)C2CCC1(CS(=O)(=O)O)C(=O)C2 (stereo not drawn) [camphorsulfonic anions] | about 18 orders of magnitude
p-toluenesulfonate [p-toluenesulfonate anions] | about 18 orders of magnitude

Assay: not given
Conditions: relative to triphenylantimony and triphenylbismuth; cited from earlier work

Molecule | mean lethal dose LD50
triphenyltin | one to two orders of magnitude lower
